Test results as given in the supplement of paper PMC4862054.

What was measured:
Conditions in all cases: incubation time: 72 h
[1] = test system: CAL-120; assay: normalised viability (% of control), CellTiter-Blue; higher = more viable cells (about 100 = DMSO control)
Protocol: (§1)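 DSRT, CellTiter-Blue viability, 72 h incubation. Signal is normalised to DMSO and benzethonium chloride controls. Value is the normalised response at dose 3.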

[2] = test system: CAL-51; assay: as above
Protocol: as §1

[3] = test system: MDA-MB-436; assay: as above
Protocol: as §1

[4] = test system: MFM-223; assay: as above
Protocol: as §1

[5] = test system: BT-474; assay: normalised viability (% of control), CellTiter-Blue; higher = more viable cells (about 100 = DMSO control)
Outline: (§2)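 Seeded at 20 µl suspension per well onto compound-loaded 384-well plates, breast cancer cell lines were incubated 72 h. CellTiter-Blue fluorescence at 560/590 nm was then read, with each plate normalised to vehicle (100) and a positive kill control (0). Normalised viability is reported at a single listed concentration of the series.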

[6] = test system: CAL-120; assay: as above; remark: listed apart in the source
Outline: as §2

[7] = test system: MDA-MB-231; assay: as above
Outline: as §2

[8] = test system: BT-474; assay: drug sensitivity score (DSS), CellTiter-Glo (DSS (AUC-based score)); higher = stronger drug effect (viability inhibition or cytotoxicity); extreme values may be limits of the assay
Outline: (§3)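 Each compound occupied 5 concentrations in 10-fold steps over its own 10,000-fold range in 384-well plates, into which breast cancer cell lines were seeded as 20 µl suspension. Following 72 h of incubation, CellTox Green fluorescence (485/520 nm) was measured, and CellTiter-Glo luminescence was measured after 10 min at room temperature. Plates were individually normalised to 0.1 % DMSO and a positive kill control. From the area under the fitted dose-response curve, a drug sensitivity score was calculated.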

[9] = test system: BT-549; assay: as above
Outline: as §3

[10] = test system: CAL-120; assay: as above
Outline: as §3

[11] = test system: CAL-148; assay: as above
Outline: as §3

[12] = test system: CAL-51; assay: as above
Outline: as §3

[13] = test system: CAL-85-1; assay: as above
Outline: as §3

[14] = test system: DU-4475; assay: as above
Outline: as §3

[15] = test system: HCC1143; assay: as above
Outline: as §3

[16] = test system: HCC1599; assay: as above
Outline: as §3

[17] = test system: HCC1937; assay: as above
Outline: as §3

[18] = test system: HDQ-P1; assay: as above
Outline: as §3

[19] = test system: Hs578T; assay: as above
Outline: as §3

[20] = test system: MCF-10A; assay: as above
Outline: as §3

[21] = test system: MDA-MB-231; assay: as above
Outline: as §3

[22] = test system: MDA-MB-436; assay: as above
Outline: as §3

[23] = test system: MDA-MB-453; assay: as above
Outline: as §3

[24] = test system: MDA-MB-468; assay: as above
Outline: as §3

[25] = test system: MFM-223; assay: as above
Outline: as §3

[26] = test system: SK-BR-3; assay: as above
Outline: as §3

Row | Structure (SMILES) | normalised viability ([5]; 1000 nM) | normalised viability ([6]; 1000 nM) | normalised viability ([7]; 1000 nM) | drug sensitivity score [8] | drug sensitivity score [9] | drug sensitivity score [10] | drug sensitivity score [11] | drug sensitivity score [12] | drug sensitivity score [13] | drug sensitivity score [14] | drug sensitivity score [15] | drug sensitivity score [16] | drug sensitivity score [17] | drug sensitivity score [18] | drug sensitivity score [19] | drug sensitivity score [20] | drug sensitivity score [21] | drug sensitivity score [22] | drug sensitivity score [23] | drug sensitivity score [24] | further results
1 | Oc1ccc2c(c1)CC[C@H](c1ccccc1)[C@@H]2c1ccc(OCCN2CCCC2)cc1 [Lasofoxifene] | 110% | 95.8% | 95.3% | 0 | 0 | 0 | 0 | 0 | 0 | 0 | 0 | 0 | 0 | 0 | 0 | 0 | 0 | 0 | 0 | 0 | normalised viability ([1]; 10 nM): 86.9%; normalised viability ([2]; 1 nM): 95.1%; normalised viability ([3]; 10 nM): 85.3%; normalised viability ([4]; 10 nM): 82.8%; normalised viability ([5]; 1 nM): 122%; normalised viability ([5]; 100 nM): 114%; normalised viability ([6]; 1 nM): 77.6%; normalised viability ([6]; 100 nM): 87.8%; normalised viability ([7]; 1 nM): 93.1%; normalised viability ([7]; 100 nM): 95.2%; drug sensitivity score [25]: 0; drug sensitivity score [26]: 0
2 | c1ccc2c(CCNc3ccc(Nc4ccncc4)cc3)c[nH]c2c1 [Serdemetan] | 106% | 91.4% | 89.5% | 4.79 | 6.83 | 0 | 7.11 | 15.9 | 1.35 | 7.09 | 0 | 3.17 | 3.14 | 2.35 | 0.96 | 0 | 3.86 | 2.94 | 1.37 | 7.12 | normalised viability ([1]; 100 nM): 81.9%; normalised viability ([2]; 10 nM): 104%; normalised viability ([3]; 100 nM): 113%; normalised viability ([4]; 100 nM): 92.4%; normalised viability ([5]; 10 nM): 106%; normalised viability ([5]; 10000 nM): 94.4%; normalised viability ([6]; 10 nM): 88%; normalised viability ([6]; 10000 nM): 48.1%; normalised viability ([7]; 10 nM): 88.4%; normalised viability ([7]; 10000 nM): 58.2%; drug sensitivity score [25]: 1.34; drug sensitivity score [26]: 6.23
3 | CNC(=O)c1cc(Oc2ccc(NC(=O)Nc3ccc(Cl)c(C(F)(F)F)c3)c(F)c2)ccn1 [Regorafenib] | 103% | 102% | 68.1% | 2.89 | 1.23 | 1.79 | 0.856 | 5.7 | 0 | 1.79 | 0 | 1.51 | 1.28 | 2.22 | 3.86 | 4.48 | 0.969 | 1.08 | 2.37 | 1.92 | normalised viability ([1]; 100 nM): 87.7%; normalised viability ([2]; 10 nM): 101%; normalised viability ([3]; 100 nM): 121%; normalised viability ([4]; 100 nM): 92.6%; normalised viability ([5]; 10 nM): 94.5%; normalised viability ([5]; 10000 nM): 38.8%; normalised viability ([6]; 10 nM): 89.4%; normalised viability ([6]; 10000 nM): 46%; normalised viability ([7]; 10 nM): 90.5%; normalised viability ([7]; 10000 nM): 31.7%; drug sensitivity score [25]: 6.42; drug sensitivity score [26]: 1.17
4 | O=C(/C=C/c1cccc(S(=O)(=O)Nc2ccccc2)c1)NO [Belinostat] | 47.5% | 20.5% | 40.7% | 14.9 | 9.61 | 13.1 | 16.1 | 18.6 | 12.6 | 15.9 | 11.6 | 12.1 | 7.92 | 8.05 | 11 | 10.8 | 14 | 10.5 | 20.4 | 14.7 | normalised viability ([1]; 100 nM): 66.3%; normalised viability ([2]; 10 nM): 105%; normalised viability ([3]; 100 nM): 95.3%; normalised viability ([4]; 100 nM): 96.4%; normalised viability ([5]; 10 nM): 106%; normalised viability ([5]; 10000 nM): 2.17%; normalised viability ([6]; 10 nM): 87.7%; normalised viability ([6]; 10000 nM): 3.33%; normalised viability ([7]; 10 nM): 96.1%; normalised viability ([7]; 10000 nM): 7.79%; drug sensitivity score [25]: 13.9; drug sensitivity score [26]: 18.3
5 | COc1cc(OC2CCN(C)CC2)ccc1Nc1ncc2c(n1)n(C1CCCC1)c(=O)n2C [AZ 3146] | 96.2% | 109% | 82.3% | 2.51 | 0 | 0.593 | 0 | 5.98 | 2.31 | 0 | 0 | 1.58 | 0 | 0 | 0 | 2.22 | 0 | 0 | 0 | 2.06 | normalised viability ([1]; 100 nM): 121%; normalised viability ([2]; 10 nM): 92.3%; normalised viability ([3]; 100 nM): 93.5%; normalised viability ([4]; 100 nM): 105%; normalised viability ([5]; 10 nM): 110%; normalised viability ([5]; 10000 nM): 122%; normalised viability ([6]; 10 nM): 115%; normalised viability ([6]; 10000 nM): 76.5%; normalised viability ([7]; 10 nM): 96.5%; normalised viability ([7]; 10000 nM): 45.8%; drug sensitivity score [25]: 0; drug sensitivity score [26]: 4.5
6 | CN(C)CCOc1ccc(/C(=C(/CCCl)c2ccccc2)c2ccccc2)cc1 [Toremifene] | 119% | 96.1% | 101% | 1.35 | 0 | 0 | 0 | 0 | 0 | 0 | 0 | 0 | 1.98 | 0 | 0 | 1.79 | 0 | 0 | 0 | 0 | normalised viability ([1]; 100 nM): 93.7%; normalised viability ([2]; 10 nM): 107%; normalised viability ([3]; 100 nM): 110%; normalised viability ([4]; 100 nM): 99.8%; normalised viability ([5]; 10 nM): 132%; normalised viability ([5]; 10000 nM): 92.4%; normalised viability ([6]; 10 nM): 85.2%; normalised viability ([6]; 10000 nM): 79.1%; normalised viability ([7]; 10 nM): 95.8%; normalised viability ([7]; 10000 nM): 108%; drug sensitivity score [25]: 0.949; drug sensitivity score [26]: 0
7 | Cc1[nH]c2ccccc2c1CCNCc1ccc(/C=C/C(=O)NO)cc1 [Panobinostat] | 9.36% | 3.59% | 7.26% | 16.6 | 11.1 | 12.9 | 20 | 17.2 | 16.5 | 19.2 | 15.1 | 14.7 | 9.22 | 8.41 | 15.1 | 11.1 | 18.2 | 10.2 | 23.5 | 15.2 | normalised viability ([1]; 10 nM): 59.3%; normalised viability ([2]; 1 nM): 116%; normalised viability ([3]; 10 nM): 96.4%; normalised viability ([4]; 10 nM): 101%; normalised viability ([5]; 1 nM): 118%; normalised viability ([5]; 100 nM): 4.44%; normalised viability ([6]; 1 nM): 109%; normalised viability ([6]; 100 nM): 9.65%; normalised viability ([7]; 1 nM): 120%; normalised viability ([7]; 100 nM): 13.3%; drug sensitivity score [25]: 13.2; drug sensitivity score [26]: 22.3
8 | CC(C)C[C@@H](C(=O)N[C@H](C(=O)OC1CCCC1)c1ccccc1)[C@H](O)C(=O)NO [Tosedostat] | 101% | 65.4% | 53.9% | 16.9 | 12.3 | 12.7 | 5.14 | 4.55 | 12.7 | 0 | 5.96 | 0 | 8.46 | 5.25 | 2.74 | 0 | 11.1 | 5.37 | 14.1 | 19.1 | normalised viability ([1]; 100 nM): 66.8%; normalised viability ([2]; 10 nM): 101%; normalised viability ([3]; 100 nM): 96.2%; normalised viability ([4]; 100 nM): 79.8%; normalised viability ([5]; 10 nM): 107%; normalised viability ([5]; 10000 nM): 105%; normalised viability ([6]; 10 nM): 82.4%; normalised viability ([6]; 10000 nM): 55%; normalised viability ([7]; 10 nM): 105%; normalised viability ([7]; 10000 nM): 47.1%; drug sensitivity score [25]: 6.14; drug sensitivity score [26]: 0
9 | COCC[n+]1c2c(n(Cc3cnccn3)c1C)C(=O)c1ccccc1C2=O [YM155] | 0.63% | 2.84% | 1.23% | 40 | 25.8 | 42.3 | 33 | 33.8 | 39.2 | 27.1 | 35.2 | 35.3 | 35.3 | 33.5 | 18.8 | 29.5 | 37.8 | 40.6 | 29.6 | 41.9 | normalised viability ([1]; 100 nM): 5.35%; normalised viability ([2]; 10 nM): 70.5%; normalised viability ([3]; 100 nM): 2.36%; normalised viability ([4]; 100 nM): 26.1%; normalised viability ([5]; 10 nM): 84.2%; normalised viability ([5]; 10000 nM): 2.25%; normalised viability ([6]; 10 nM): 9.27%; normalised viability ([6]; 10000 nM): 3.14%; normalised viability ([7]; 10 nM): 14.7%; normalised viability ([7]; 10000 nM): 2.19%; drug sensitivity score [25]: 28.4; drug sensitivity score [26]: 33
